Experimental data taken from ChEMBL document CHEMBL5214997, “6-Thioguanosine Monophosphate Prodrugs Display Enhanced Performance against Thiopurine-Resistant Leukemia and Breast Cancer Cells” (J Med Chem, 2022).
Calls of active or inactive are those of the source. No cut-off for these calls is given here.

Columns and labels:
THP-1 = test: Antiproliferative activity against human THP-1 cells with low HGPRT expression incubated for 48 hrs by CellTiter-Glo2 assay; type: functional, cell-based; conditions: THP-1, 48 h
HEK-293T [1] = test: Antiproliferative activity against HEK293T cells with high HGPRT expression incubated for 48 hrs by CellTiter-Glo2 assay; type: functional, cell-based; conditions: Homo sapiens
K562 [2] = test: Antiproliferative activity against human K562 cells with low HGPRT expression incubated for 48 hrs by CellTiter-Glo2 assay; type: functional, cell-based; conditions: K562, 48 h
SK-BR-3 [3] = test: Antiproliferative activity against human SK-BR-3 cells with low HGPRT expression incubated for 48 hrs by CellTiter-Glo2 assay; type: functional, cell-based; conditions: SK-BR-3, 48 h
HEK-293T [4] = test: Effect on p21 mRNA expression in HEK293T cells assessed as increase in labeling efficiency at 100 uM incubated for 16 hrs and measured by TUC-Seq DUAL method; type: functional, cell-based; conditions: Homo sapiens
[5] = Effect on ND1 mRNA expression in HEK293T cells assessed as percentage of labeled transcripts at 100 uM incubated for 2 hrs and measured by TUC-Seq DUAL method; type: functional, Homo sapiens, HEK-293T
[6] = Effect on CCNT1 mRNA expression in HEK293T cells assessed as percentage of labeled transcripts at 100 uM incubated for 2 hrs and measured by TUC-Seq DUAL method; type: functional, Homo sapiens, HEK-293T
[7] = Effect on p21 mRNA expression in HEK293T cells assessed as percentage of labeled transcripts at 100 uM incubated for 2 hrs and measured by TUC-Seq DUAL method; type: functional, Homo sapiens, HEK-293T
SK-BR-3 [8] = test: Downregulation of HGPRT mRNA expression in human SK-BR-3 cells at 1 mM measured after 48 hrs by qPCR analysis; type: functional, cell-based
K562 [9] = test: Downregulation of HGPRT mRNA expression in human K562 cells at 1 mM measured after 48 hrs by qPCR analysis; type: functional, cell-based
SK-BR-3 [10] = test: Drug resistance of human SK-BR-3 cells assessed as percentage of resistant cells at 1 mM; type: functional
K562 [11] = test: Antiproliferative activity against human K562 cells with low HGPRT expression assessed as cell survival at 1000 uM and incubated for 48 hrs by CellTiter-Glo2 assay; type: functional; conditions: read-out: Activity

EC50 (THP-1)	EC50 (K562 [2])	SMILES	EC50 (HEK-293T [1])	EC50 (SK-BR-3 [3])	Activity (HEK-293T [4])	Activity [5]	Activity [6]	Activity [7]	Activity (SK-BR-3 [8])	Activity (K562 [9])	Activity (SK-BR-3 [10])	viability at 1000 µM (K562 [11])
8.4 µM	62 µM	CC(C)(C)C(=O)SCCOP(=O)(OCCSC(=O)C(C)(C)C)OC[C@H]1O[C@@H](n2cnc3c(=S)[nH]c(N)nc32)[C@H](O)[C@@H]1O	246 µM	–	–	–	–	–	–	–	–	–
0.67 µM	2.3 µM	CC(=O)Oc1ccc(COP(=O)(O)OC[C@H]2O[C@@H](n3cnc4c(=S)[nH]c(N)nc43)[C@H](O)[C@@H]2O)cc1	6.9 µM	201 µM	Active	–	–	–	–	–	–	–
0.35 µM	1.3 µM	Nc1nc(=S)c2ncn([C@@H]3O[C@H](CO)[C@@H](O)[C@H]3O)c2[nH]1 [THIOGUANOSINE]	4.7 µM	–	–	2.5%	2.5%	2.5%	–	–	–	–
0.34 µM	2.6 µM	CC(=O)Oc1ccc(COP(=O)(OCc2ccc(OC(C)=O)cc2)OC[C@H]2O[C@@H](n3cnc4c(SCc5ccc(OC(C)=O)cc5)nc(N)nc43)[C@H](O)[C@@H]2O)cc1	6.7 µM	3.5 µM	–	–	–	–	–	–	–	–
33 µM	92 µM	CCC(CC)COC(=O)[C@H](C)NP(=O)(OC[C@H]1O[C@@H](n2cnc3c(=S)[nH]c(N)nc32)[C@H](O)[C@@H]1O)Oc1ccccc1 (some centres not stated)	–	–	–	–	–	–	–	–	–	–

The remaining lines, values behind:

SMILES	EC50 (THP-1)	EC50 (K562 [2])	EC50 (HEK-293T [1])	EC50 (SK-BR-3 [3])	Activity (HEK-293T [4])	Activity [5]	Activity [6]	Activity [7]	Activity (SK-BR-3 [8])	Activity (K562 [9])	Activity (SK-BR-3 [10])	viability at 1000 µM (K562 [11])
Nc1nc2c(ncn2[C@@H]2O[C@H](COP3(=O)OCc4cc(Cl)ccc4O3)[C@@H](O)[C@H]2O)c(=S)[nH]1 (some centres not stated)	0.4 µM	5.6 µM	15 µM	42 µM	Active	–	–	–	–	–	–	–
Nc1nc2[nH]cnc2c(=S)[nH]1 [THIOGUANINE]	0.27 µM	0.74 µM	3.6 µM	–	–	–	–	–	Active	Active	40%	15%
Nc1nc2c(ncn2[C@@H]2O[C@H](COP3(=O)OCc4ccccc4O3)[C@@H](O)[C@H]2O)c(=S)[nH]1 (some centres not stated)	1.4 µM	7.2 µM	14 µM	25 µM	Active	–	–	–	–	–	–	–
